Source: BindingDB's records for doi:10.1111/j.1747-0285.2007.00594.x (Pfizer, 2007)

Legend:
Assay in all cases: Enzymatic Activity Assay
Details in all cases: pH 7.5; 22 °C
[1] = target: Serine/threonine-protein kinase PLK3 (Homo sapiens, UniProt Q9H4B4)
[2] = target: Serine/threonine-protein kinase PLK2 (Homo sapiens, UniProt Q9NYY3)
[3] = target: Serine/threonine-protein kinase PLK1 (Homo sapiens, UniProt P53350)
Sequence of Serine/threonine-protein kinase PLK1 (P53350 whole entry): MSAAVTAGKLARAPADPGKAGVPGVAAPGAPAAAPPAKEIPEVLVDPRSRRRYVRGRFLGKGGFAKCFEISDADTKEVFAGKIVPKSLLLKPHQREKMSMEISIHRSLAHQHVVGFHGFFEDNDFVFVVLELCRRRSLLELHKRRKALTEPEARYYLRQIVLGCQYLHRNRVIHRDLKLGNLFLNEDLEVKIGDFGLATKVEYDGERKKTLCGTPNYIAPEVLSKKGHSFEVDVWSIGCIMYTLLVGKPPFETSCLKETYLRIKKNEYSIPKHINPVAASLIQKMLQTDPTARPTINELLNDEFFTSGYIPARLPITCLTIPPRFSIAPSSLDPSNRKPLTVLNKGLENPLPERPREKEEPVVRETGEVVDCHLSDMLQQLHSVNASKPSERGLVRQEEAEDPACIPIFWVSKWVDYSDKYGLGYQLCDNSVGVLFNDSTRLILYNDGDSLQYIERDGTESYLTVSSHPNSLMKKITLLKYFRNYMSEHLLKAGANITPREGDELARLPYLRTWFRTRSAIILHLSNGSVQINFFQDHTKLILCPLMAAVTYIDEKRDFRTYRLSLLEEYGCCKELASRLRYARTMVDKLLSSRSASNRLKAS

Sequence of Serine/threonine-protein kinase PLK2 (Q9NYY3 whole entry): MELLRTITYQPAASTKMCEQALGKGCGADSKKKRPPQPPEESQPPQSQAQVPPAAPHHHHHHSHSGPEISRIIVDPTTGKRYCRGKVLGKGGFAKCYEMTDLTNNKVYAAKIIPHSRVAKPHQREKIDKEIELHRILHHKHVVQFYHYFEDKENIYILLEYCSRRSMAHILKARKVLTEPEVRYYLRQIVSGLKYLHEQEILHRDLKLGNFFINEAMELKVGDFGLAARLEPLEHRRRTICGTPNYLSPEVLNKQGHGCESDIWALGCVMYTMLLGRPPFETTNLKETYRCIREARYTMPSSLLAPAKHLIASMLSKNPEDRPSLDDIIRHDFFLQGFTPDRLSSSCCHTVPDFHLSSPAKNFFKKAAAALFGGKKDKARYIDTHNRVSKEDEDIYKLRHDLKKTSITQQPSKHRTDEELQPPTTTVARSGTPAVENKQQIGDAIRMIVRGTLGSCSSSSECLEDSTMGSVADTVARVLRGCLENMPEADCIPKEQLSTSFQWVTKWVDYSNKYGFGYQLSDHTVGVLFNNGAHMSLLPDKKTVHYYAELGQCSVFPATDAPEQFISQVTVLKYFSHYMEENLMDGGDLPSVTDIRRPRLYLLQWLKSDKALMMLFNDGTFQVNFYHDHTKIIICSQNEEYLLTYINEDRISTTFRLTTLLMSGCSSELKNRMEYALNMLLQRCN
Sequence of Serine/threonine-protein kinase PLK3 (Q9H4B4 whole entry): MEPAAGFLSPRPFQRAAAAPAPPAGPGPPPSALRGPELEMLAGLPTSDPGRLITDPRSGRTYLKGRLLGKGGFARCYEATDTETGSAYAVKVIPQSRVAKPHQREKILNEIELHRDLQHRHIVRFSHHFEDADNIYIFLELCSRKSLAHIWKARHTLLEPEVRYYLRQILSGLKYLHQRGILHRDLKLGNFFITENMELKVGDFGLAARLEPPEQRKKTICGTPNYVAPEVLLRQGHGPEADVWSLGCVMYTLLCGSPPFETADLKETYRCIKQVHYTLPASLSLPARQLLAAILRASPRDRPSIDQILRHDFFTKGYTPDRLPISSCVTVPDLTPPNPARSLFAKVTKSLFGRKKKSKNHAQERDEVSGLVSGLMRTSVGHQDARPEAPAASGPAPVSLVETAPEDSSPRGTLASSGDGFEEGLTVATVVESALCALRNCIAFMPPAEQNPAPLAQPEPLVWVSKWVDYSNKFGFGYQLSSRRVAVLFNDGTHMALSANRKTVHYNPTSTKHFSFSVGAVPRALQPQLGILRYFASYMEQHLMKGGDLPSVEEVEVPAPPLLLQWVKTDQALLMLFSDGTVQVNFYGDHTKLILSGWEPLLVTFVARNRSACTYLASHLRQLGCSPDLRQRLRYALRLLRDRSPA

IC50 [1] | IC50 [2] | IC50 [3] | SMILES
2580 nM | > 10000 nM | 145 nM | COc1cc(N2CCN(C)CC2)ccc1Nc1ncc(C(C)=O)c(NC2CCCC2)n1 [1-[4-(cyclopentylamino)-2-{[2-methoxy-4-(4-methylpiperazin-1-yl)phenyl]amino}pyrimidin-5-yl]ethan-1-one]
3490 nM | 367 nM | 345 nM | CC(=O)c1cnc(Nc2ccc(N3CCN(C)CC3)cc2)nc1NC1CCCC1 [1-[4-(cyclopentylamino)-2-{[4-(4-methylpiperazin-1-yl)phenyl]amino}pyrimidin-5-yl]ethan-1-one]
6.7 nM | 11.5 nM | 5 nM | CC[C@@H]1C(=O)N(C)c2cnc(Nc3ccc(C(=O)NC4CCN(C)CC4)cc3)nc2N1C1CCCC1 [4-{[(7R)-8-cyclopentyl-7-ethyl-5-methyl-6-oxo-5,6,7,8-tetrahydropteridin-2-yl]amino}-N-(1-methylpiperidin-4-yl)benzamide]
